Measurements: US20110263822A1, “COMPOSITION FOR THE PROPHYLAXIS AND TREATMENT OF HBV INFECTIONS AND HBV-MEDIATED DISEASES” (Rhein Biotech Gesellschaft Fur Neue Biotechnologische …, priority 2003, published 2011)
Ends that are not written are not given here.

Biological target: MHC class I molecules K^b (Mus musculus, UniProt P01901)
Assay: biochemical
Conditions: 48 hours at 18° C.; read-out: K^b-binding

Sequence of MHC class I molecules K^b (P01901 whole entry, looked up): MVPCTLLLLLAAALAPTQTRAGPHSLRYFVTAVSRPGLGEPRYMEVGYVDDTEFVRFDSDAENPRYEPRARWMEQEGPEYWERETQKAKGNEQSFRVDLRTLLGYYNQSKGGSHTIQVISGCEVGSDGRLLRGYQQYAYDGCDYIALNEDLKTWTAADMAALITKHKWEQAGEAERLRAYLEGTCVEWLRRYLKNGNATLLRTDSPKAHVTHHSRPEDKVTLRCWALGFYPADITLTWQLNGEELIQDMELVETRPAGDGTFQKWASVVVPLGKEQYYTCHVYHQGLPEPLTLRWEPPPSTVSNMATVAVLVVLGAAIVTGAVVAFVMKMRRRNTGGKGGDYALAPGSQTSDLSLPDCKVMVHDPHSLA

Sequence: IVSPFIPL [IVSPFIPL]
- IC50: 773 nM
